# Measured values taken from patent US4731451A, “N-((2-oxo-3(2H)benzothiazolyl)methyl)-2-chloroacetanilides” (Monsanto Company, priority 1980, dated 1988).
# How the values were obtained:
# Type in all cases: in vivo
# Cyperus serotinus = experiment: Percent inhibition of rice weeds in transplanted rice (Table VI); details: 432 h, 18 days after treatment
# Text: (§1) In Table VI, data is presented showing the effect of said compound on the major Asian rice weeds Echinochloa crusgalli (EC), Monochoria vaginalis (MV), Cyperus serotinus (CS), Eleocharis kuroguwai (EK) and Sagittaria trifolia (ST) in transplanted rice at rates within the range of 0.25-2.0 lb/A (0.28-2.24 kg/ha); observations were made 18 days after treatment.
# Echinochloa crusgalli = experiment: as above; details: Echinochloa crus-galli, 432 h, 18 days after treatment
# Text: as §1
# Eleocharis kuroguwai = experiment: as above; details: 432 h, 18 days after treatment
# Text: as §1
# Monochoria vaginalis = experiment: as above; details: Pontederia vaginalis, 432 h, 18 days after treatment
# Text: as §1
# Sagittaria trifolia = experiment: as above; details: 432 h, 18 days after treatment
# Text: as §1
# Lambsquarters = experiment: Pre-emergent herbicidal activity (Table III); also: ranges in brackets are in %
# Method in brief: (§2)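 Percent injury per species, converted to a fixed rating scale, is recorded roughly 2-3 weeks after seeding and treatment. The compound is mixed through the soil used to cover the seeds, and pans are held in a greenhouse and watered from below.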
# Panicum = experiment: Pre-emergent herbicidal activity (Table III); also: ranges in brackets are in %
# Method in brief: as §2
# Morningglory = experiment: Pre-emergent herbicidal activity (Table III); also: ranges in brackets are in %
# Method in brief: as §2
# Smartweed = experiment: Pre-emergent herbicidal activity (Table III); also: ranges in brackets are in %
# Method in brief: as §2
# Cocklebur = experiment: Pre-emergent herbicidal activity (Table III); also: ranges in brackets are in %
# Method in brief: as §2
# Wild Buckwheat = experiment: Pre-emergent herbicidal activity (Table III); also: ranges in brackets are in %
# Method in brief: as §2
# Downy Brome = experiment: Pre-emergent herbicidal activity (Table III); also: ranges in brackets are in %
# Method in brief: as §2
# Soybean = experiment: Pre-emergent herbicidal activity (Table III); also: ranges in brackets are in %
# Method in brief: as §2
# Barnyardgrass = experiment: Pre-emergent herbicidal activity (Table III); also: ranges in brackets are in %
# Method in brief: as §2
# Crabgrass = experiment: Pre-emergent herbicidal activity (Table III); also: ranges in brackets are in %
# Method in brief: as §2
# Hemp Sesbania = experiment: Pre-emergent herbicidal activity (Table III); also: ranges in brackets are in %
# Method in brief: as §2
# Sugarbeet = experiment: Pre-emergent herbicidal activity (Table III); also: ranges in brackets are in %
# Method in brief: as §2
# Wheat = experiment: Pre-emergent herbicidal activity (Table III); also: ranges in brackets are in %
# Method in brief: as §2
# Sorghum = experiment: Pre-emergent herbicidal activity (Table III); also: ranges in brackets are in %
# Method in brief: as §2
# Rice = experiment: Pre-emergent herbicidal activity (Table III); also: ranges in brackets are in %
# Method in brief: as §2
# Velvetleaf = experiment: Pre-emergent herbicidal activity (Table III); also: ranges in brackets are in %
# Method in brief: as §2
smiles,measurement,setting,value
"CC1=C(N(Cn2c(=O)sc3ccccc32)C(=O)CCl)C(C)CCC1 (stereo not drawn) [Example 1, N-(2,6-dimethyl-1-cyclohexen-1-yl)-N-[(2-oxo-3(2H)-benzothiazolyl)methyl]-2-chloroacetamide]",inhibition at 280 g/ha,Cyperus serotinus; 0.28 kg/ha,80%
same,inhibition at 560 g/ha,Cyperus serotinus; 0.56 kg/ha,90%
same,inhibition at 1120 g/ha,Cyperus serotinus; 1.12 kg/ha,100%
same,inhibition at 2240 g/ha,Cyperus serotinus; 2.24 kg/ha,100%
same,inhibition at 280 g/ha,Echinochloa crusgalli; 0.28 kg/ha,100%
same,inhibition at 560 g/ha,Echinochloa crusgalli; 0.56 kg/ha,100%
same,inhibition at 1120 g/ha,Echinochloa crusgalli; 1.12 kg/ha,100%
same,inhibition at 2240 g/ha,Echinochloa crusgalli; 2.24 kg/ha,100%
same,inhibition at 280 g/ha,Eleocharis kuroguwai; 0.28 kg/ha,100%
same,inhibition at 560 g/ha,Eleocharis kuroguwai; 0.56 kg/ha,100%
same,inhibition at 1120 g/ha,Eleocharis kuroguwai; 1.12 kg/ha,100%
same,inhibition at 2240 g/ha,Eleocharis kuroguwai; 2.24 kg/ha,100%
same,inhibition at 280 g/ha,Monochoria vaginalis; 0.28 kg/ha,100%
same,inhibition at 560 g/ha,Monochoria vaginalis; 0.56 kg/ha,100%
same,inhibition at 1120 g/ha,Monochoria vaginalis; 1.12 kg/ha,100%
same,inhibition at 2240 g/ha,Monochoria vaginalis; 2.24 kg/ha,100%
same,inhibition at 280 g/ha,Sagittaria trifolia; 0.28 kg/ha,0%
same,inhibition at 560 g/ha,Sagittaria trifolia; 0.56 kg/ha,5%
same,inhibition at 1120 g/ha,Sagittaria trifolia; 1.12 kg/ha,5%
same,inhibition at 2240 g/ha,Sagittaria trifolia; 2.24 kg/ha,5%
same,Herbicidal rating,Lambsquarters; 0.0056 kg/ha,1 (25-49)
same,Herbicidal rating,Lambsquarters; 0.0112 kg/ha,1 (25-49)
same,Herbicidal rating,Lambsquarters; 0.056 kg/ha,1 (25-49)
same,Herbicidal rating,Lambsquarters; 0.28 kg/ha,2 (50-74)
same,Herbicidal rating,Lambsquarters; 1.12 kg/ha,2 (50-74)
same,Herbicidal rating,Lambsquarters; 5.6 kg/ha,1 (25-49)
same,Herbicidal rating,Panicum; 0.0056 kg/ha,3 (75-100)
same,Herbicidal rating,Panicum; 0.0112 kg/ha,3 (75-100)
same,Herbicidal rating,Panicum; 0.056 kg/ha,3 (75-100)
same,Herbicidal rating,Panicum; 0.28 kg/ha,3 (75-100)
same,Herbicidal rating,Panicum; 1.12 kg/ha,3 (75-100)
same,Herbicidal rating,Panicum; 5.6 kg/ha,2 (50-74)
same,Herbicidal rating,Morningglory; 0.0056 kg/ha,3 (75-100)
same,Herbicidal rating,Morningglory; 0.0112 kg/ha,3 (75-100)
same,Herbicidal rating,Morningglory; 0.056 kg/ha,1 (25-49)
same,Herbicidal rating,Morningglory; 0.28 kg/ha,0 (0-24)
same,Herbicidal rating,Morningglory; 1.12 kg/ha,0 (0-24)
same,Herbicidal rating,Morningglory; 5.6 kg/ha,0 (0-24)
same,Herbicidal rating,Smartweed; 0.0056 kg/ha,1 (25-49)
same,Herbicidal rating,Smartweed; 0.0112 kg/ha,1 (25-49)
same,Herbicidal rating,Smartweed; 0.056 kg/ha,1 (25-49)
same,Herbicidal rating,Smartweed; 0.28 kg/ha,1 (25-49)
same,Herbicidal rating,Smartweed; 1.12 kg/ha,0 (0-24)
same,Herbicidal rating,Smartweed; 5.6 kg/ha,0 (0-24)
same,Herbicidal rating,Cocklebur; 0.0112 kg/ha,0 (0-24)
same,Herbicidal rating,Cocklebur; 0.056 kg/ha,0 (0-24)
same,Herbicidal rating,Wild Buckwheat; 0.0056 kg/ha,0 (0-24)
same,Herbicidal rating,Wild Buckwheat; 0.0112 kg/ha,0 (0-24)
same,Herbicidal rating,Wild Buckwheat; 0.056 kg/ha,0 (0-24)
same,Herbicidal rating,Wild Buckwheat; 0.28 kg/ha,0 (0-24)
same,Herbicidal rating,Wild Buckwheat; 1.12 kg/ha,0 (0-24)
same,Herbicidal rating,Wild Buckwheat; 5.6 kg/ha,0 (0-24)
same,Herbicidal rating,Downy Brome; 0.0056 kg/ha,0 (0-24)
same,Herbicidal rating,Downy Brome; 0.0112 kg/ha,1 (25-49)
same,Herbicidal rating,Downy Brome; 0.056 kg/ha,0 (0-24)
same,Herbicidal rating,Downy Brome; 0.28 kg/ha,0 (0-24)
same,Herbicidal rating,Downy Brome; 1.12 kg/ha,3 (75-100)
same,Herbicidal rating,Downy Brome; 5.6 kg/ha,0 (0-24)
same,Herbicidal rating,Soybean; 0.0056 kg/ha,0 (0-24)
same,Herbicidal rating,Soybean; 0.0112 kg/ha,0 (0-24)
same,Herbicidal rating,Soybean; 0.056 kg/ha,1 (25-49)
same,Herbicidal rating,Soybean; 0.28 kg/ha,0 (0-24)
same,Herbicidal rating,Soybean; 1.12 kg/ha,0 (0-24)
same,Herbicidal rating,Soybean; 5.6 kg/ha,1 (25-49)
same,Herbicidal rating,Barnyardgrass; 0.0056 kg/ha,3 (75-100)
same,Herbicidal rating,Barnyardgrass; 0.0112 kg/ha,3 (75-100)
same,Herbicidal rating,Barnyardgrass; 0.056 kg/ha,3 (75-100)
same,Herbicidal rating,Barnyardgrass; 0.28 kg/ha,3 (75-100)
same,Herbicidal rating,Barnyardgrass; 1.12 kg/ha,3 (75-100)
same,Herbicidal rating,Barnyardgrass; 5.6 kg/ha,3 (75-100)
same,Herbicidal rating,Crabgrass; 0.0056 kg/ha,3 (75-100)
same,Herbicidal rating,Crabgrass; 0.0112 kg/ha,2 (50-74)
same,Herbicidal rating,Crabgrass; 0.056 kg/ha,3 (75-100)
same,Herbicidal rating,Crabgrass; 0.28 kg/ha,3 (75-100)
same,Herbicidal rating,Crabgrass; 1.12 kg/ha,3 (75-100)
same,Herbicidal rating,Crabgrass; 5.6 kg/ha,3 (75-100)
same,Herbicidal rating,Hemp Sesbania; 0.0112 kg/ha,1 (25-49)
same,Herbicidal rating,Hemp Sesbania; 0.056 kg/ha,0 (0-24)
same,Herbicidal rating,Sugarbeet; 0.0056 kg/ha,0 (0-24)
same,Herbicidal rating,Sugarbeet; 0.0112 kg/ha,0 (0-24)
same,Herbicidal rating,Sugarbeet; 0.056 kg/ha,1 (25-49)
same,Herbicidal rating,Sugarbeet; 0.28 kg/ha,1 (25-49)
same,Herbicidal rating,Sugarbeet; 1.12 kg/ha,1 (25-49)
same,Herbicidal rating,Sugarbeet; 5.6 kg/ha,1 (25-49)
same,Herbicidal rating,Wheat; 0.0056 kg/ha,0 (0-24)
same,Herbicidal rating,Wheat; 0.0112 kg/ha,0 (0-24)
same,Herbicidal rating,Wheat; 0.056 kg/ha,0 (0-24)
same,Herbicidal rating,Wheat; 0.28 kg/ha,0 (0-24)
same,Herbicidal rating,Wheat; 1.12 kg/ha,1 (25-49)
same,Herbicidal rating,Wheat; 5.6 kg/ha,0 (0-24)
same,Herbicidal rating,Sorghum; 0.0056 kg/ha,0 (0-24)
same,Herbicidal rating,Sorghum; 0.0112 kg/ha,1 (25-49)
same,Herbicidal rating,Sorghum; 0.056 kg/ha,0 (0-24)
same,Herbicidal rating,Sorghum; 0.28 kg/ha,0 (0-24)
same,Herbicidal rating,Sorghum; 1.12 kg/ha,3 (75-100)
same,Herbicidal rating,Sorghum; 5.6 kg/ha,1 (25-49)
same,Herbicidal rating,Rice; 0.0056 kg/ha,1 (25-49)
same,Herbicidal rating,Rice; 0.0112 kg/ha,1 (25-49)
same,Herbicidal rating,Rice; 0.056 kg/ha,0 (0-24)
same,Herbicidal rating,Rice; 0.28 kg/ha,2 (50-74)
same,Herbicidal rating,Rice; 1.12 kg/ha,2 (50-74)
same,Herbicidal rating,Rice; 5.6 kg/ha,2 (50-74)
same,Herbicidal rating,Velvetleaf; 0.0056 kg/ha,0 (0-24)
same,Herbicidal rating,Velvetleaf; 0.0112 kg/ha,0 (0-24)
same,Herbicidal rating,Velvetleaf; 0.056 kg/ha,0 (0-24)
same,Herbicidal rating,Velvetleaf; 0.28 kg/ha,0 (0-24)
same,Herbicidal rating,Velvetleaf; 1.12 kg/ha,0 (0-24)
same,Herbicidal rating,Velvetleaf; 5.6 kg/ha,0 (0-24)
